Where a name gives a salt, the structure may show the parent alone.
Tested on: DGAT
Assay: DGAT Phospholipid FlashPlate Assay
Format: biochemical
Conditions: DGAT pellet, DAG-coated PL-FlashPlate, 14C-Pal-CoA, 37° C. for 1 hour; read-out: DGAT Inhibition Activity IC50
Outline: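 DGAT membrane pellet (0.13 mg protein/ml diluted stock) reacted 1 h at 37 °C with 14C-palmitoyl-CoA (8.3 μM diluted stock) on FlashPlates coated with 500 μM DAG, in Tris-HCl pH 7.5, 100 mM NaCl. Scintillation counts converted to % inhibition; IC50 by 4-parameter logistic fit.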

| IC50 | SMILES |
| --- | --- |
| 289 nM | CCOc1cccc2c1cc(C(=O)Nc1ccc(N3CCN(C(=O)CC4SC(=O)NC4=O)CC3)cc1)n2CC (centres unmarked) [Example 68, 4-Ethoxy-1-ethyl-1H-indole-2-carboxylic acid (4-{4-[2-(2,4-dioxo-thiazolidin-5-yl)-acetyl]-piperazin-1-yl}-phenyl)-amide hydrochloride] |
| 309 nM | CCOC(=O)N1CC[C@H](Nc2ccc(NC(=O)c3cc4c(OC)c(OC)ccc4n3CC)cn2)C1 [Example 54, (S)-3-{5-[(1-Ethyl-4,5-dimethoxy-1H-indole-2-carbonyl)-amino]-pyridin-2-ylamino}pyrrolidine-1-carboxylic acid ethyl ester hydrochloride] |
| 848 nM | CCOc1ccc2c(C)c(C(=O)Nc3ccc(N4CCN(C(=O)OC(C)(C)C)CC4)cc3)oc2c1OCC [Example 78, 4-{4-[(6,7-Diethoxy-3-methyl-benzofuran-2-carbonyl)-amino]-phenyl}-piperazine-1-carboxylic acid tert-butyl ester] |
| 270 nM | CCn1c(C(=O)Nc2ccc(N3CCN(C(=O)CC(C)(C)C(=O)O)CC3)nc2)cc2c(OC)cc(OC)cc21 [Example 17, 4-(4-{5-[(1-Ethyl-4,6-dimethoxy-1H-indole-2-carbonyl)-amino]-pyridin-2-yl}-piperazin-1-yl)-2,2-dimethyl-4-oxo-butyric acid] |
| 84 nM | CCn1c(C(=O)Nc2ccc(N3CCN(C(=O)OC(C)(C)C)CC3)nc2)cc2c(OC)cccc21 [Example 20, 4-{5-[(1-Ethyl-4-methoxy-1H-indole-2-carbonyl)-amino]-pyridin-2-yl}-piperazine-1-carboxylic acid tert-butyl ester] |
| 296 nM | CCOc1cccc2c1cc(C(=O)Nc1ccc(O[C@H]3CCN(c4ccc(C(=O)O)cc4)C3)cc1)n2CC [Example 67] |
| 821 nM | CCn1c(C(=O)Nc2ccc(N3CCN(C(=O)OC(C)(C)C)CC3)cc2)cc2c(Cl)c(Cl)ccc21 [Example 59, 4-{4-[(4,5-Dichloro-1-ethyl-1H-indole-2-carbonyl)-amino]-phenyl}-piperazine-1-carboxylic acid tert-butyl ester] |
| 64 nM | COc1cccc2c(C)c(C(=O)Nc3ccc(N4CCN(C(=O)CC(C)(C)C(=O)O)CC4)cc3)[nH]c12 [Example 74, 4-(4-{4-[(7-Methoxy-3-methyl-1H-indole-2-carbonyl)-amino]-phenyl}-piperazin-1-yl)-2,2-dimethyl-4-oxo-butyric acid] |
| 668 nM | CCn1c(C(=O)Nc2ccc(N(C)C3CC3)nc2)cc2cc(Cl)ccc21 [Example 45, 5-Chloro-1-ethyl-1H-indole-2-carboxylic acid [6-(cyclopropyl-methyl-amino)-pyridin-3-yl]-amide] |
| 117 nM | COCCN(C)c1ccc(NC(=O)c2[nH]c3c(OC)cccc3c2C)cn1 [Example 72, 7-Methoxy-3-methyl-1H-indole-2-carboxylic acid {6-[(2-methoxy-ethyl)-methyl-amino]pyridin-3-yl}-amide] |
| 343 nM | CCOC(=O)N1CC[C@H](Nc2ccc(NC(=O)c3cc4cc(OC)ccc4n3CC)cn2)C1 [Example 51, (S)-3-{5-[(1-Ethyl-5-methoxy-1H-indole-2-carbonyl)-amino]-pyridin-2-ylamino}-pyrrolidine-1-carboxylic acid ethyl ester hydrochloride] |

Source: US8124766B2, “Inhibitors of diacylglycerol acyltransferase” (Madrigal Pharmaceuticals, Inc., priority 2008, dated 2012)
